Numbered stars: 1 amine (or outer) side, 2 acyl side, 3 side chain; on linkers, the order of the positions; unused ones are H or OH. Square brackets hold non-standard residues; d marks the D form. Side chains are listed from the residue outwards. Peptide text beside a SMILES is read from it. * marks the point of attachment. γGlu = O=C(O)[C@H](CCC(=O)[*:2])N[*:1]; Stearoyl = CCCCCCCCCCCCCCCCCC(=O)*; Aib = CC(C)(N)C(=O)O
Columns and labels:
[1] = target: T1, human glucagon receptor (Homo sapiens, UniProt P47871); experiment: cAMP response (HTRF) of HEK-293 cells stably expressing human glucagon receptor; assay type: cell-based; details: Table 8; read-out: EC50 hGlucagon R
T1 construct: expressed in transfected cells; host or cells: HEK-293
Procedure: (§1) cAMP content of cells was determined using a kit from Cisbio Corp. (cat. no. 62AM4PEJ) based on HTRF (Homogenous Time Resolved Fluorescence). For preparation, cells were split into T175 culture flasks and grown overnight to near confluency in medium (DMEM/10% FBS). Medium was then removed and cells washed with PBS lacking calcium and magnesium, followed by proteinase treatment with accutase (Sigma-Aldrich cat. no. A6964). Detached cells were washed and resuspended in assay buffer (1×HBSS; 20 mM HEPES, 0.1% BSA, 2 mM IBMX) and cellular density determined. They were then diluted to 400000 cells/ml and 25 μl-aliquots dispensed into the wells of 96-well plates. For measurement, 25 μl of test compound in assay buffer was added to the wells, followed by incubation for 30 minutes at room temperature.
(§2) Potencies of peptidic compounds at the GLP-1, glucagon and GIP receptors were determined by exposing cells expressing human glucagon receptor (hGlucagon R), human GIP receptor (hGIP-R) or human GLP-1 receptor (hGLP-1 R) to the listed compounds at increasing concentrations and measuring the formed cAMP as described in Methods.

[2] = Thioflavin T (ThT) assay for physical stability (fibrillation); assay type: physicochemical; details: 3 mg/ml, 100 mM acetate pH 4.5 with m-cresol, 37° C. shaking
Method in brief: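 Peptides at 3 mg/ml final with 100 μM ThT final in 100 mM acetate pH 4.5 containing 2.7 mg/mL m-cresol, eight replicates. Stressed at 37° C by repeated cycles of 10 s shaking at 960 rpm and 50 s rest. Fluorescence read every 20 minutes; lag time in hours taken from the sigmoidal kinetic curve.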

[3] = target: T2, human GIP receptor (Homo sapiens, UniProt P48546); experiment: cAMP response (HTRF) of HEK-293 cells stably expressing human GIP receptor; assay type: cell-based; details: Table 8; read-out: EC50 hGIP R
T2 construct: expressed in transfected cells; host or cells: HEK-293
T2 sequence (P48546 22-466): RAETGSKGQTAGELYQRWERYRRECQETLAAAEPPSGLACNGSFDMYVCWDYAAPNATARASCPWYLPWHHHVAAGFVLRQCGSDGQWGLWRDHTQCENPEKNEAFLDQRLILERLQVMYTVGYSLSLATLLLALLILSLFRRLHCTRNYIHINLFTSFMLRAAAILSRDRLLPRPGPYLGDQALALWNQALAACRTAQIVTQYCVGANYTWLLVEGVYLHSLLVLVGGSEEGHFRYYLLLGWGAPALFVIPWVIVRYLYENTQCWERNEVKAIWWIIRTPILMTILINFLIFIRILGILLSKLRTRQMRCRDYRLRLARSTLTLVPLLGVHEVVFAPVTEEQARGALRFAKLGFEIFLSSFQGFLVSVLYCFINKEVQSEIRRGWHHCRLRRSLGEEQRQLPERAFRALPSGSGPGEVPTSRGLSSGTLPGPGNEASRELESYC
Procedure: Agonism of compounds for the receptors was determined by functional assays measuring cAMP response of HEK-293 cell lines stably expressing human GLP-1, GIP or glucagon receptor.
as §1, with “temperature. After addition of HTRF reagents diluted in lysis buffer (kit components), the plates were incubated for 1 hr, followed by measurement of the fluorescence ratio at 665/616 nm. In vitro potency of agonists was quantified by determining the concentrations that caused 50% activation of maximal response (EC50).” for “temperature.”
as §2

[4] = target: T3, human GLP-1 receptor (Homo sapiens, UniProt P43220); experiment: cAMP response (HTRF) of HEK-293 cells stably expressing human GLP-1 receptor; assay type: cell-based; details: Table 8; read-out: EC50 hGLP-1R
T3 construct: expressed in transfected cells; host or cells: HEK-293
Procedure: as §1, §2

T3 sequence (P43220 24-463): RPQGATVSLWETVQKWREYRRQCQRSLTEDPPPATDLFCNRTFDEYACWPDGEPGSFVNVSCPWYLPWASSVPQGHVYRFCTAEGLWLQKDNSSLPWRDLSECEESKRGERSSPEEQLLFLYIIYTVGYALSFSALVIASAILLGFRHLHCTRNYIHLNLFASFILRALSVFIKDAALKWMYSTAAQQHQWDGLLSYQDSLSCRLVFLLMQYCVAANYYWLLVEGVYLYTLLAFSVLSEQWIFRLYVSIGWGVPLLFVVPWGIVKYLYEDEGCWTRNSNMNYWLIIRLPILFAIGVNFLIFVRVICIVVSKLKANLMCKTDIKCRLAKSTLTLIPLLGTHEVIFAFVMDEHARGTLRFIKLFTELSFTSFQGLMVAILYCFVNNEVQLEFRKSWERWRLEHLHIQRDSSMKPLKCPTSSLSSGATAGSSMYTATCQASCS
T1 sequence (P47871 26-477): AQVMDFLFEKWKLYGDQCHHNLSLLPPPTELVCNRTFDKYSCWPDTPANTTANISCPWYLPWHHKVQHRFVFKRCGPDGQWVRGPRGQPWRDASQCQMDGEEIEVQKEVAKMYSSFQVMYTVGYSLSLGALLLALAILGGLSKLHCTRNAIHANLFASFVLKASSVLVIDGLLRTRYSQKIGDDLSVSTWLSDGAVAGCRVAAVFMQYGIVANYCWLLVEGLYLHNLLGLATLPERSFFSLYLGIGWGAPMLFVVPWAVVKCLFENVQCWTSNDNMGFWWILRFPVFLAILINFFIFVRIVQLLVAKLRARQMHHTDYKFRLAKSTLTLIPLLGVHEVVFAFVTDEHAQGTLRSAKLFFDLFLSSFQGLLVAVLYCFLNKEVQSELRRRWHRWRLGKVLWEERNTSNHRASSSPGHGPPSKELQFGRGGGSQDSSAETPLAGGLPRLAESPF

EC50 [1]: 1.9 pM
Lag time before increase [2]: >45 h
EC50 [3]: 2.6 pM
EC50 [4]: 3.4 pM
Structure (SMILES): CCCCCCCCCCCCCCCCCC(=O)N[C@@H](CCC(=O)NCCCC[C@H](NC(=O)[C@H](CC(C)C)NC(=O)[C@H](CCCCN)NC(=O)[C@H](CO)NC(=O)[C@H](CC(C)C)NC(=O)[C@H](CC(=O)O)NC(=O)[C@H](CO)NC(=O)[C@@H](NC(=O)[C@H](Cc1ccccc1)NC(=O)[C@@H](NC(=O)CNC(=O)[C@H](Cc1c[nH]cn1)NC(=O)C(C)(C)NC(=O)[C@@H](N)Cc1c[nH]cn1)[C@@H](C)O)[C@@H](C)O)C(=O)N[C@@H](CCC(=O)O)C(=O)N[C@@H](CCC(=O)O)C(=O)N[C@@H](CCC(N)=O)C(=O)N[C@@H](CCCNC(=N)N)C(=O)N[C@@H](CCC(N)=O)C(=O)N[C@@H](CCCCN)C(=O)N[C@@H](CCC(=O)O)C(=O)N[C@@H](Cc1ccccc1)C(=O)N[C@H](C(=O)N[C@@H](CCC(=O)O)C(=O)N[C@@H](Cc1c[nH]c2ccccc12)C(=O)N[C@@H](CC(C)C)C(=O)N[C@@H](CCCCN)C(=O)N[C@@H](C)C(=O)NCC(=O)NCC(=O)N1CCC[C@H]1C(=O)N1CCC[C@H]1C(=O)N[C@@H](CO)C(=O)NC(C)(C)C(=O)N[C@@H](CCCCN)C(=O)N1CCC[C@H]1C(=O)N1CCC[C@H]1C(=O)N1CCC[C@H]1C(=O)N[C@@H](CCCCN)C(N)=O)[C@@H](C)CC)C(=O)O [SEQ ID NO: 21, H-Aib-H-G-T-F-T-S-D-L-S-K-L-K[gGlu-Stea]-E-E-Q-R-Q-K-E-F-I-E-W-L-K-A-G-G-P-P-S-Aib-K-P-P-P-K-NH2] (H-H[Aib]HGTFTSDLSKLK([γGlu-Stearoyl])EEQRQKEFIEWLKAGGPPS[Aib]KPPPK-NH2)
